This note sets out measurements from patent publication US20230295212A1 (ROME Therapeutics, Inc., priority 2022, published 2023).

pIC50: −log10 of the molar value.

The target of the first assay is T1, LINE1 reverse transcriptase (Homo sapiens, UniProt O00370).
T1 construct: expressed in transfected cells; host or cells: HeLa Tet-On 3G (Takara, cat no 631183)
T1 sequence (O00370 whole entry, looked up): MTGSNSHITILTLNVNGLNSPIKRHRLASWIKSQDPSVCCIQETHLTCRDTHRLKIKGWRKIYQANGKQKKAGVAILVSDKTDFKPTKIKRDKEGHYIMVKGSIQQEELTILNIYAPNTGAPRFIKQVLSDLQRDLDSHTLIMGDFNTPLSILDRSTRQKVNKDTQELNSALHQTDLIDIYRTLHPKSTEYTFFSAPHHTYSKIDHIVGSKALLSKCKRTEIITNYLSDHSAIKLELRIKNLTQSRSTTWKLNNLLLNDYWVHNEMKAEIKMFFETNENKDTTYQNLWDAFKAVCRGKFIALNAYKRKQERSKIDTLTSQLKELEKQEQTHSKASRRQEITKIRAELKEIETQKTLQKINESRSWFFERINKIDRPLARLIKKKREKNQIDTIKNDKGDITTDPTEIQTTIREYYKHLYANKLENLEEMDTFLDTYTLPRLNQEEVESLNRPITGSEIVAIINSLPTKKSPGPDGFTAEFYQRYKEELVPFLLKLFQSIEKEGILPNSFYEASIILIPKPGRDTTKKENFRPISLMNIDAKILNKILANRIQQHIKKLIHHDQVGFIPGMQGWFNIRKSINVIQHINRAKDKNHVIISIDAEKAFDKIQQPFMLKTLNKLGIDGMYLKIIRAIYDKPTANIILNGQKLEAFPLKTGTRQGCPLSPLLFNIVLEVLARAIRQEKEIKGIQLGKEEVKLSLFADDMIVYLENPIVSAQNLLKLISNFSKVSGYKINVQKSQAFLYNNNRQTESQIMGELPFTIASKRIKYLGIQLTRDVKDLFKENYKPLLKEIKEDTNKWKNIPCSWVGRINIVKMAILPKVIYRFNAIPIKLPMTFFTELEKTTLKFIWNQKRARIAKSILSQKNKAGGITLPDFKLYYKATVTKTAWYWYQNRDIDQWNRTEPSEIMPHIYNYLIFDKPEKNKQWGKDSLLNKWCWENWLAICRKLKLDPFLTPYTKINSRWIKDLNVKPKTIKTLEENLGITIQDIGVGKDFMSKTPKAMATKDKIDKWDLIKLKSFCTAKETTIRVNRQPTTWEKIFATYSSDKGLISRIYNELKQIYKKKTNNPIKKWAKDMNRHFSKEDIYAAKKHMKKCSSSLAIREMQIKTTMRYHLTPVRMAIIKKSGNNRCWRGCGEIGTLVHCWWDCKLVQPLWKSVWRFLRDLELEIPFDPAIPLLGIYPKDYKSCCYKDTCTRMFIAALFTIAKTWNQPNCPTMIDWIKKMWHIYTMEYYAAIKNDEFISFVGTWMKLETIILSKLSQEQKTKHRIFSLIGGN
The experiment in a line: Stable artificial-intron Cis LINE1 reporter assay (HeLa Tet-On 3G, Firefly luciferase). The class given is cell-based. The conditions noted are these: HeLa L1 artificial-intron reporter cells, doxycycline 500 ng/mL, 72 h, class symbols. As to the method: Exemplary compounds, were tested for the ability to inhibit LINE1 reverse transcriptase using a stable artificial-intron Cis LINE1 reporter assay. Assay procedures and results are described below.
A stable HeLa Tet-On 3G (Takara, cat no 631183) cell line expressing a bi-directional inducible LINE1 construct was generated as described in Xie, Y. et al. “Cell division promotes efficient retrotransposition in a stable L1 reporter cell line,” Mobile DNA (2013) 4:10. Single cell clones were screened for high Luciferase expression and the highest expression Firefly expressing clone was chosen for compound testing.
Test compounds were serially diluted in DMSO and spotted in 96-well plates. Subsequently, the HeLa Li artificial-intron reporter cells were plated into the compound-containing wells (8,000 cells/well), and the cells were induced for reporter expression with doxycycline (Sigma-Aldrich cat #D9891) at a final concentration of 500 ng/mL. Luminescence was measured 72 h after plating using the Dual-Glo Luciferase Assay System (Promega cat #E2940) following the manufacturer's instructions. The Firefly Luciferase activity was used to report LINE1 activity.
The molecule `Nc1ccn([C@H]2C[C@H](O)[C@](CO)(C(F)(F)F)O2)c(=O)n1` [Compound 21, 4-amino-1-((2R,4S,5R)-4-hydroxy-5-(hydroxymethyl)-5-(trifluoromethyl)tetrahydrofuran-2-yl)pyrimidin-2(1H)-one] had a negative-log IC50 (pIC50) of 6.00 to 6.60.
In turn, `CC[C@]1(CO)O[C@@H](n2cnc3c(N)nc(F)nc32)C[C@@H]1O` [Compound 64, (2R,3S,5R)-5-(6-amino-2-fluoro-9H-purin-9-yl)-2-ethyl-2-(hydroxymethyl)tetrahydrofuran-3-ol] gave a pIC50 of 7.00 to 7.30.
Turning to `O=c1ccn([C@@H]2O[C@@](CO)(CCl)[C@@H](O)[C@H]2F)c(=O)[nH]1` [Compound 29, 1-((2R,3R,4R,5R)-5-(chloromethyl)-3-fluoro-4-hydroxy-5-(hydroxymethyl)tetrahydrofuran-2-yl)pyrimidine-2,4(1H,3H)-dione], the negative-log IC50 (pIC50) is < 6.00.
In the case of `[N-]=[N+]=N[C@]1(CO)O[C@@H](n2cc(F)c(N)nc2=O)C[C@@H]1O` [Compound 61, 4-amino-1-((2R,4S,5R)-5-azido-4-hydroxy-5-(hydroxymethyl)tetrahydrofuran-2-yl)-5-fluoropyrimidin-2(1H)-one], the pIC50 is ≥ 7.30.
For `Nc1cnn([C@H]2C[C@H](O)[C@](CO)(CCl)O2)c(=O)n1` [Compound 18, 5-amino-2-((2R,4S,5R)-5-(chloromethyl)-4-hydroxy-5-(hydroxymethyl)tetrahydrofuran-2-yl)-1,2,4-triazin-3(2H)-one], the negative logarithm of the IC50 (pIC50) was < 6.00.
Same read-out and setting: the value for `Nc1nc2c(ncn2[C@H]2C[C@H](O)[C@](CO)(CF)O2)c(=O)[nH]1` [Compound 46, 2-amino-9-((2R,4S,5R)-5-(fluoromethyl)-4-hydroxy-5-(hydroxymethyl)tetrahydrofuran-2-yl)-1,9-dihydro-6H-purin-6-one] was 7.00 to 7.30.
The same measure, in the same setting: the value for `Nc1nc(=O)n([C@H]2C[C@H](O)[C@](CO)(CBr)O2)cc1F` [Compound 88, 4-amino-1-((2R,4S,5R)-5-(bromomethyl)-4-hydroxy-5-(hydroxymethyl)tetrahydrofuran-2-yl)-5-fluoropyrimidin-2(1H)-one] was ≥ 7.30.
The same measure, in the same setting: then `[N-]=[N+]=N[C@]1(CO)O[C@@H](n2ccc(N)nc2=O)[C@@H](F)[C@@H]1O` [Compound 50, 4-amino-1-((2R,3S,4R,5R)-5-azido-3-fluoro-4-hydroxy-5-(hydroxymethyl)tetrahydrofuran-2-yl)pyrimidin-2(1H)-one], with ≥ 7.30.
As to `Nc1nc(=O)n([C@@H]2O[C@@](CO)(CI)[C@@H](O)[C@@H]2F)cc1F` [Compound 129, 4-amino-5-fluoro-1-((2R,3S,4R,5R)-3-fluoro-4-hydroxy-5-(hydroxymethyl)-5-(iodomethyl)tetrahydrofuran-2-yl)pyrimidin-2(1H)-one], the pIC50 was < 6.00.
On to `Nc1ccn([C@H]2C[C@@H](O)[C@](CO)(CCl)O2)c(=O)n1` [Compound 59, 4-amino-1-[(2R,4R,5R)-5-(chloromethyl)-4-hydroxy-5-(hydroxymethyl)oxolan-2-yl] pyrimidin-2-one], for which the pIC50 is < 6.00.
For `CC(C)C(=O)OC[C@@]1(CCl)O[C@@H](n2cc(F)c(N)nc2=O)C[C@@H]1OC(=O)C(C)C` [Compound 58], the pIC50 was 7.00 to 7.30.
For the molecule `C#C[C@]1(CO)O[C@@H](n2cc(F)c(N)nc2=O)[C@@H](F)[C@@H]1O` [Compound 112, 4-amino-1-((2R,3S,4R,5R)-5-ethynyl-3-fluoro-4-hydroxy-5-(hydroxymethyl)tetrahydrofuran-2-yl)-5-fluoropyrimidin-2(1H)-one], the pIC50 is ≥ 7.30.
`CCC[C@]1(CO)O[C@@H](n2ccc(N)nc2=O)C[C@@H]1O` [Compound 60, 4-amino-1-((2R,4S,5R)-4-hydroxy-5-(hydroxymethyl)-5-propyltetrahydrofuran-2-yl)pyrimidin-2(1H)-one]: the pIC50 is < 6.00.
Turning to `Cc1cn([C@@H]2O[C@@](CO)(CCl)[C@@H](O)[C@H]2F)c(=O)[nH]c1=O` [Compound 9, 1-((2R,3R,4R,5R)-5-(chloromethyl)-3-fluoro-4-hydroxy-5-(hydroxymethyl)tetrahydrofuran-2-yl)-5-methylpyrimidine-2,4(1H,3H)-dione], the negative-log IC50 (pIC50) is < 6.00.
Consider `CC[C@]1(CO)O[C@@H](n2cc(F)c(N)nc2=O)C[C@@H]1O` [Compound 82, 4-amino-1-((2R,4S,5R)-5-ethyl-4-hydroxy-5-(hydroxymethyl)tetrahydrofuran-2-yl)-5-fluoropyrimidin-2(1H)-one], for which the pIC50 was ≥ 7.30.
On to `Nc1nc(=O)n([C@H]2C[C@H](O)[C@](CO)(CF)O2)cc1F` [Compound 22, 4-amino-5-fluoro-1-((2R,4S,5R)-5-(fluoromethyl)-4-hydroxy-5-(hydroxymethyl)tetrahydrofuran-2-yl)pyrimidin-2(1H)-one], for which the negative-log IC50 (pIC50) is ≥ 7.30.
The molecule `CO[C@@H]1[C@H](n2ccc(N)nc2=O)O[C@@](CO)(CCl)[C@H]1O` [Compound 13, 4-amino-1-((2R,3S,4S,5R)-5-(chloromethyl)-4-hydroxy-5-(hydroxymethyl)-3-methoxytetrahydrofuran-2-yl)pyrimidin-2(1H)-one] showed a pIC50 of 6.00 to 6.60.
`C[C@@H]1[C@H](n2ccc(N)nc2=O)O[C@](C)(CO)[C@H]1O` [Compound 19, 4-amino-1-((2R,3S,4S,5R)-4-hydroxy-5-(hydroxymethyl)-3,5-dimethyltetrahydrofuran-2-yl)pyrimidin-2(1H)-one]: the pIC50 is 6.00 to 6.60.
Turning to `Nc1ccn([C@@H]2O[C@@](CO)(CCl)[C@@H](O)[C@H]2F)c(=O)n1` [Compound 31, 4-amino-1-((2R,3R,4R,5R)-5-(chloromethyl)-3-fluoro-4-hydroxy-5-(hydroxymethyl)tetrahydrofuran-2-yl)pyrimidin-2(1H)-one], the pIC50 is ≥ 7.30.
Still for that read-out and setting: then `Nc1ccn([C@H]2C[C@H](O)[C@](CO)(C3CC3)O2)c(=O)n1` [Compound 16, 4-amino-1-((2R,4S,5R)-5-cyclopropyl-4-hydroxy-5-(hydroxymethyl)tetrahydrofuran-2-yl)pyrimidin-2(1H)-one], with 6.00 to 6.60; and `C=C[C@]1(CO)O[C@@H](n2cc(F)c(N)nc2=O)C[C@@H]1O` [Compound 74, 4-amino-5-fluoro-1-((2R,4S,5R)-4-hydroxy-5-(hydroxymethyl)-5-vinyltetrahydrofuran-2-yl)pyrimidin-2(1H)-one], with ≥ 7.30; and `Nc1nc(F)nc2c1ncn2[C@H]1C[C@H](O)C(CO)(CO)O1` [Compound 10, ((3S,5R)-5-(6-amino-2-fluoro-9H-purin-9-yl)-3-hydroxytetrahydrofuran-2,2-diyl)dimethanol], with < 6.00.
For `C#C[C@]1(CO)O[C@@H](n2ccc(N)nc2=O)[C@H](F)[C@@H]1O` [Compound 32, 4-amino-1-((2R,3R,4R,5R)-5-ethynyl-3-fluoro-4-hydroxy-5-(hydroxymethyl)tetrahydrofuran-2-yl)pyrimidin-2(1H)-one], the negative logarithm of the IC50 (pIC50) was < 6.00.
For `C#C[C@]1(CO)O[C@@H](n2cc(F)c(N)nc2=O)C[C@@H]1O` [Compound 107, 4-amino-1-((2R,4S,5R)-5-ethynyl-4-hydroxy-5-(hydroxymethyl)tetrahydrofuran-2-yl)-5-fluoropyrimidin-2(1H)-one], the pIC50 is ≥ 7.30.
With `Nc1nc(=O)n([C@@H]2O[C@](/C=C\Cl)(CO)[C@@H](O)[C@@H]2F)cc1F` [Compound 132, 4-amino-1-[(2R,3S,4R,5R)-5-(2-chloroethenyl)-3-fluoro-4-hydroxy-5(Z)-(hydroxymethyl)oxolan-2-yl]-5-fluoropyrimidin-2-one], the negative logarithm of the IC50 (pIC50) is < 6.00.
In turn, `[N-]=[N+]=N[C@]1(CO)O[C@@H](n2cnc3c(=O)[nH]c(N)nc32)C[C@@H]1O` [Compound 108, 2-amino-9-((2R,4S,5R)-5-azido-4-hydroxy-5-(hydroxymethyl)tetrahydrofuran-2-yl)-1,9-dihydro-6H-purin-6-one] had a pIC50 of 7.00 to 7.30.
On to `[N-]=[N+]=N[C@]1(CO)O[C@@H](n2ccc(N)nc2=O)C[C@@H]1O` [Compound 49, 4-amino-1-((2R,4S,5R)-5-azido-4-hydroxy-5-(hydroxymethyl)tetrahydrofuran-2-yl)pyrimidin-2(1H)-one], for which the pIC50 is 7.00 to 7.30.

Staying with this assay, now noted: HeLa L1 artificial-intron reporter cells, doxycycline 500 ng/mL, 72 h, numeric bounds.
For `C#C[C@@H]1[C@H](n2ccc(N)nc2=O)O[C@@](CO)(CCl)[C@H]1O` [Compound 17, 4-amino-1-((2R,3S,4S,5R)-5-(chloromethyl)-3-ethynyl-4-hydroxy-5-(hydroxymethyl)tetrahydrofuran-2-yl)pyrimidin-2(1H)-one], the negative logarithm of the IC50 (pIC50) is < 4.52.
For `Nc1nc(=O)n([C@H]2C[C@H](O)[C@](CO)(CCl)O2)cc1C(F)(F)F` [Compound 71, 4-amino-1-((2R,4S,5R)-5-(chloromethyl)-4-hydroxy-5-(hydroxymethyl)tetrahydrofuran-2-yl)-5-(trifluoromethyl)pyrimidin-2(1H)-one], the pIC50 is < 4.52.
`Nc1nc(=O)n([C@@H]2O[C@@](CO)(C(F)(F)F)[C@@H](O)[C@@H]2O)cc1F` [Compound 95, 4-amino-1-((2R,3S,4S,5R)-3,4-dihydroxy-5-(hydroxymethyl)-5-(trifluoromethyl)tetrahydrofuran-2-yl)-5-fluoropyrimidin-2(1H)-one]: the negative logarithm of the IC50 (pIC50) was < 4.52.
Regarding `NC[C@]1(CO)O[C@@H](n2cc(F)c(N)nc2=O)[C@@H](F)[C@@H]1O` [Compound 139, 4-amino-1-[(2R,3S,4R,5R)-5-(aminomethyl)-3-fluoro-4-hydroxy-5-(hydroxymethyl)oxolan-2-yl]-5-fluoropyrimidin-2-one], the pIC50 was < 4.52.
